As usually defined, the CC50 is the concentration giving 50% cytotoxicity.

Like-named read-outs stand apart in the source and are kept apart here.

For one data set, the system named is pLai RLuc reporter virus. The data set is described as follows: microbe, parasite or virus in culture. Format: cell-based, HIV. The settings on record: Human immunodeficiency virus 1, 72 h. In outline:
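Read-out is Renilla luciferase after 72 h at 37 °C in MT-4 cells infected 2 h beforehand with pLai RLuc reporter virus; compounds diluted 1:3.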

In a further data set the test system is HIV-1 (IIIB). As to the kind of experiment: Antiviral assay in MT-4 cells (HIV MT-4 antiviral assay). The conditions noted are these: Human immunodeficiency virus 1, IIIB, MT4, 120 h, HIV-1 (IIIB) in MT-4 cells, 5 days incubation; read-out: EC50. In kind it is cell-based. The gist of the method: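 Read-out is CellTiter-Glo chemiluminescence after 5-day culture at 37° C, giving protection of MT-4 cells from HIV-1 IIIB cytopathicity. Compounds tested in 1:3 dilution series in complete RPMI; controls were no drug, mock infection and 5 μM AZT.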

A short description of data set [1]: Cytotoxicity assay in MT-4 cells. In kind it is cell-based, human. The settings on record: human, uninfected MT-4 cells, 5 days incubation; read-out: CC50. The gist of the method:
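For cytotoxicity, uninfected MT-4 cells were incubated with compounds 5 days at 37 °C, with 10 μM puromycin marking base cytotoxicity. Parallel plates used HIV-1 IIIB-infected (1:250 stock dilution) or mock cells with 5 μM AZT and no-drug controls. Read-out: CellTiter-Glo chemiluminescence.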

[2] abbreviates: read-out: Antiviral Serum Shift RLuc 50% HS, HS/CCM (RPMI media, 10% FBS, 50% HS, 1% P/S), 72-h incubation.
Setting [3] is: read-out: Antiviral Serum Shift RLuc CCM, CCM (RPMI media, 10% FBS, 1% P/S), 72-h incubation.

As for `O=C(NCc1c(F)cc(F)cc1F)c1cn2c(c(O)c1=O)C(=O)N1C[C@@H]2C[S+]([O-])c2ccccc21` (stereo partly drawn) [Example 95, (6R)-1-hydroxy-2,14-dioxo-N-(2,4,6-trifluorobenzyl)-2,6,7,14-tetrahydro-6,13-methanobenzo[b]pyrido[2,1-f][1,4,7]thiadiazonine-3-carboxamide 8-oxide], the figures for the EC50 with pLai RLuc reporter virus (setting [2]), in the data set on pLai RLuc reporter virus (setting [3]) and in the data set on HIV-1 (IIIB) were 4.84 nM, 5.18 nM and 31.5 nM, respectively. In data set [1], the CC50 at 5 days was greater than 50000 nM.

On to `O=C(NCc1c(F)cc(F)cc1F)c1cn2c(c(O)c1=O)C(=O)N1C[C@@H]2CS(=O)(=O)c2ccccc21` [Example 96, (6R)-1-hydroxy-2,14-dioxo-N-(2,4,6-trifluorobenzyl)-2,6,7,14-tetrahydro-6,13-methanobenzo[b]pyrido[2,1-f][1,4,7]thiadiazonine-3-carboxamide 8,8-dioxide], for which the results for the EC50 in the data set with pLai RLuc reporter virus (setting [2]), in the data set with pLai RLuc reporter virus (setting [3]) and with HIV-1 (IIIB) were 3.33 nM, 3.09 nM and 18.1 nM, respectively. In addition, the CC50 at 5 days in data set [1] was greater than 50000 nM.

Regarding `C[C@H]1CCC[C@H]2CN1C(=O)c1c(O)c(=O)c(C(=O)NCc3c(F)cc(F)cc3F)cn12` [Example 98, (3S, 7S)-12-hydroxy-3-methyl-1,11-dioxo-N-(2,4,6-trifluorobenzyl)-1,4,5,6,7,11-hexahydro-3H-2,7-methanopyrido[1,2-a][1,4]diazonine-10-carboxamide], the EC50 in the data set on pLai RLuc reporter virus (setting [2]) came out at 19.2 nM; with pLai RLuc reporter virus (setting [3]), 0.284 nM; in the data set with HIV-1 (IIIB), 1.27 nM. Further, the CC50 at 5 days in data set [1] turned out to be 14300 nM.

Consider `CC[C@]1(OC)CCCN2C[C@H]1n1cc(C(=O)NCc3c(F)cc(F)cc3F)c(=O)c(O)c1C2=O` [Example 100, (6S,7R)-6-ethyl-12-hydroxy-6-methoxy-1,11-dioxo-N-(2,4,6-trifluorobenzyl)-1,4,5,6,7,11-hexahydro-3H-2,7-methanopyrido[1,2-a][1,4]diazonine-10-carboxamide], for which the EC50 in the data set on pLai RLuc reporter virus (setting [2]) turned out to be 1.77 nM; with pLai RLuc reporter virus (setting [3]), 0.631 nM; in the data set with HIV-1 (IIIB), 1.58 nM. In addition, the CC50 at 5 days in data set [1] was found to be 9440 nM.

As for `O=C(NCc1c(F)cc(F)cc1F)c1cn2c(c(O)c1=O)C(=O)N1CC=CC[C@H]2C1` [Example 101, (7S)-12-hydroxy-1,11-dioxo-N-(2,4,6-trifluorobenzyl)-1,6,7,11-tetrahydro-3H-2,7-methanopyrido[1,2-a][1,4]diazonine-10-carboxamide], the EC50 in the data set on pLai RLuc reporter virus (setting [2]) worked out at 1.62 nM; with pLai RLuc reporter virus (setting [3]), 0.22 nM; in the data set on HIV-1 (IIIB) it was 1.52 nM. In addition, the CC50 at 5 days in data set [1] is 19500 nM.

On to `O=C(NCc1c(F)cc(F)cc1F)c1cn2c(c(O)c1=O)C(=O)N1C[C@@H]2CCc2sccc21` [Example 104-1, (11S)-6-hydroxy-5,7-dioxo-N-(2,4,6-trifluorobenzyl)-5,7,12,13-tetrahydro-11H-4,11-methanopyrido[1,2-a]thieno[3,2-e][1,4]diazonine-8-carboxamide], for which the EC50 in the data set on pLai RLuc reporter virus (setting [2]) was 1.99 nM; in the data set with pLai RLuc reporter virus (setting [3]), 0.323 nM; with HIV-1 (IIIB) it was 1.48 nM. Further, the CC50 at 5 days in data set [1] stood at 11900 nM.

Consider `C[C@@H]1CC[C@H]2CN(C(=O)c3c(O)c(=O)c(C(=O)NCc4c(F)cc(F)cc4F)cn32)[C@H]1C` [Example 108-1, (3S,4R,7S)-12-hydroxy-3,4-dimethyl-1,11-dioxo-N-(2,4,6-trifluorobenzyl)-1,4,5,6,7,11-hexahydro-3H-2,7-methanopyrido[1,2-a][1,4]diazonine-10-carboxamide], for which the EC50 was 1.31 nM with pLai RLuc reporter virus (setting [2]), 0.2 nM in the data set with pLai RLuc reporter virus (setting [3]) and 0.997 nM with HIV-1 (IIIB). In addition, the CC50 at 5 days in data set [1] turned out to be 16100 nM.

As to `C[C@H]1CC[C@H]2CN(C(=O)c3c(O)c(=O)c(C(=O)NCc4c(F)cc(F)cc4F)cn32)[C@H]1C` [Example 108-2, (3S,4S,7S)-12-hydroxy-3,4-dimethyl-1,11-dioxo-N-(2,4,6-trifluorobenzyl)-1,4,5,6,7,11-hexahydro-3H-2,7-methanopyrido[1,2-a][1,4]diazonine-10-carboxamide], the EC50 was 1.55 nM with pLai RLuc reporter virus (setting [2]), 0.335 nM in the data set with pLai RLuc reporter virus (setting [3]) and 0.917 nM in the data set on HIV-1 (IIIB). Further, in data set [1], the CC50 at 5 days worked out at 11800 nM.
